Assay results from patent US7067666B2, “7-substituted camptothecin and camptothecin analogs and methods for producing the same” (priority 2003, dated 2006).
≈ marks a conversion by molar mass, not a printed value.

assay: Solubility in methylene chloride (standard method for ascertaining lipophilicity); format: physicochemical; conditions: not given
From the text: Throughout the present application many CPT compounds have been defined with a substituent X as shown in structure I or II where X is defined and many substituents are shown. With the exception of the simple substituents where R is C1-5 alkyl (which can be prepared by the method of Sawada et al. (Chem. Pharm. Bull. 39, 2574-2580 ([…]))), the other compounds recited herein can not be made by conventional methods, but require, to the best of the inventors' knowledge, the use of the method of the present invention. Using the method of Sawada et al, the yield of alkyl became progressively lower essentially terminating where R is C5 alkyl. All other R substituents shown herein can be made only by the present method involving Grignard reactions, especially analogs like 7-t-butyl-10,11-methylenedioxy-CPT, 7-trimethylsilylmethyl-10,11-methylenedioxy-CPT, 7-naphthylmethyl-10,11-methylenedioxy-CPT, 7-p-fluorophenyl-10,11-methylenedioxy-CPT, 7-p-trifluoromethyl-10,11-methylenedioxy-CPT, and 7-p-tolyl-10,11-methylenedioxy-CPT. A number of compounds made by this method have shown unusual properties. For example, Table 1 gives the methylene chloride solubility of a number of compounds which are made by the methods described by this patent. For example, 7-butyl-10-aminocamptothecin made by this procedure is remarkably lipophilic. 10-Aminocamptothecin has a solubility of —0.2 mg/ml. […] It has been found by several groups that lipophilic substituents at the 7 position have excellent activity in the inhibition of topoisomerase I and in in vitro and in vivo cancer therapy.
We have utilized a standard method for ascertaining the lipophilicity of a number of camptothecin analogs. This involves the solubility in methylene chloride. This solvent is an excellent solvent for fat-soluble compounds. As can be noted with only one exception, compounds with the 7-butyl substituent are considerably more soluble than those without this constituent. Thus camptothecin is soluble only to the extent of 0.6 mg/ml whereas 7-butyl-camptothecin has a solubility of 20 mg/ml. 10-Amino-camptothecin is soluble only to the extent of 0.2 mg/ml. Very unexpectedly, 7-butyl-10-amino-camptothecin is very soluble at 145 mg/ml. It is also conceivable that camptothecin analogs with 7-pentyl or 7-hexyl substituents or 7-cyclopentyl or 7-cyclohexyl substituents will have increased solubility.

| Compound | Solubility | solubility in methylene chloride |
| --- | --- | --- |
| 7-Benzyl-10,11-CPT | 1800 µg/mL |  |
| 7-Butyl-9-methyl-CPT | 180 µg/mL |  |
| CCC(C)c1c2c(nc3ccccc13)-c1cc3c(c(=O)n1C2)COC(=O)C3(O)CC (centres unmarked) [7-(sec)Butyl-CPT] | 33000 µg/mL (≈ 81600 µM) |  |
| CC[C@@]1(O)C(=O)OCc2c1cc1n(c2=O)Cc2c-1nc1cc3c(cc1c2Cc1ccccc1)OCO3 [7-Benzyl-10,11-MD-CPT, 7-Benzyl-10,11-MD-20(S)-Camptothecin] | 1800 µg/mL (≈ 3730 µM) |  |
| CCCCc1c2c(nc3cc4c(cc13)OCCO4)-c1cc3c(c(=O)n1C2)COC(=O)C3(O)CC (centres unmarked) [7-Butyl-10,11-ED-CPT] | 7000 µg/mL (≈ 15100 µM) |  |
| CCCCc1c2c(nc3cc4c(cc13)OCO4)-c1cc3c(c(=O)n1C2)COC(=O)[C@]3(O)CC [7-Butyl-10,11-MD-CPT] | 8500 µg/mL (≈ 19000 µM) |  |
| CCCCc1c2c(nc3ccc(N)cc13)-c1cc3c(c(=O)n1C2)COC(=O)[C@]3(O)CC [7-Butyl-10-Amino-CPT, 7-n-Butyl-10-Amino-20(S)-Camptothecin] | 145000 µg/mL (≈ 346000 µM) |  |
| CCCCc1c2c(nc3ccc(O)cc13)-c1cc3c(c(=O)n1C2)COC(=O)[C@]3(O)CC [7-Butyl-10-OH-CPT] | <50 µg/mL |  |
| CCCCc1c2c(nc3ccc(OC)cc13)-c1cc3c(c(=O)n1C2)COC(=O)C3(O)CC (centres unmarked) [7-Butyl-10-methoxy-CPT] | 2000 µg/mL (≈ 4600 µM) |  |
| CC[C@@]1(O)C(=O)OCc2c1cc1n(c2=O)Cc2c-1nc1cc3c(cc1c2-c1ccc(Cl)cc1)OCO3 [7-p-Chlorophenyl-10,11-MD-CPT, 7-p-Chlorophenyl-10,11-MD-20(S)-Camptothecin] | 6300 µg/mL (≈ 12500 µM) |  |
| CC[C@@]1(O)C(=O)OCc2c1cc1n(c2=O)Cc2c-1nc1cc3c(cc1c2-c1ccc(F)cc1)OCO3 [7-p-Fluorophenyl-10,11-MD-CPT, 7-p-Fluorophenyl-10,11-MD-20(S)-Camptothecin] | 2550 µg/mL (≈ 5240 µM) |  |
| CC[C@@]1(O)C(=O)OCc2c1cc1n(c2=O)Cc2c-1nc1cc3c(cc1c2-c1ccc(C)cc1)OCO3 [7-p-Tolyl-10,11-MD-CPT, 7-p-Tolyl-10,11-MD-20(S)-Camptothecin] | 4600 µg/mL (≈ 9530 µM) |  |
| CCC1(O)C(=O)OCc2c1cc1n(c2=O)Cc2cc3c(N)c4c(cc3nc2-1)OCO4 (centres unmarked) [9-Amino-10,11-MD-CPT, reference compound] | <20 µg/mL |  |
| CCC1(O)C(=O)OCc2c1cc1n(c2=O)Cc2cc3c([N+](=O)[O-])c4c(cc3nc2-1)OCO4 (centres unmarked) [9-Nitro-10,11-MD-CPT, reference compound] | 250 µg/mL (≈ 572 µM) |  |
| CCC1(O)C(=O)OCc2c1cc1n(c2=O)Cc2cc3cc4c(cc3nc2-1)OCCO4 (centres unmarked) [10,11-ED-CPT, reference compound] | 200 µg/mL (≈ 492 µM) |  |
| CC[C@@]1(O)C(=O)OCc2c1cc1n(c2=O)Cc2cc3cc(OC)ccc3nc2-1 [10-Methoxy-CPT, reference compound] | 3000 µg/mL (≈ 7930 µM) |  |
| CCCCc1c2c(nc3ccccc13)-c1cc3c(c(=O)n1C2)COC(=O)C3(O)CC (centres unmarked) [Example 7-Butyl-CPT, 7-butyl-camptothecin] | 20000 µg/mL (≈ 49400 µM) | 20000 µg/mL (≈ 49400 µM) |
| CC[C@@]1(O)C(=O)OCc2c1cc1n(c2=O)Cc2cc3c(N)cccc3nc2-1 [Example 9-Amino-CPT, 9-Amino-CPT, reference compound] | <30 µg/mL |  |
| CCC1(O)C(=O)OCc2c1cc1n(c2=O)Cc2cc3c(C)cccc3nc2-1 (centres unmarked) [Example 9-Methyl-CPT, 9-Methyl-CPT, reference compound] | 100 µg/mL (≈ 276 µM) |  |
| CC[C@@]1(O)C(=O)OCc2c1cc1n(c2=O)Cc2cc3cc(N)ccc3nc2-1 [Example 10-Amino-CPT, 10-Aminocamptothecin, reference compound] | 200 µg/mL (≈ 550 µM) | 200 µg/mL (≈ 550 µM) |

same assay, conditions: Solubility in CH2Cl2

| Compound | Solubility |
| --- | --- |
| CC[C@@]1(O)C(=O)OCc2c1cc1n(c2=O)Cc2cc3cc4c(cc3nc2-1)OCO4 [10,11-MD-CPT, 10,11-methylenedioxy-CPT, reference compound] | <8 µg/mL |
| CC[C@@]1(O)C(=O)OCc2c1cc1n(c2=O)Cc2cc3ccccc3nc2-1 [Camptothecin] | 600 µg/mL (≈ 1720 µM) |
| CC[C@@]1(O)C(=O)OCc2c1cc1n(c2=O)Cc2cc3cc(O)ccc3nc2-1 [Example 10-OH-CPT, 10-OH-CPT, reference compound] | <40 µg/mL |

same assay, conditions: organic solvent or mixture; methylene chloride; read-out: solubility in methylene chloride

| Compound | Solubility |
| --- | --- |
| CC[C@@]1(O)C(=O)OCc2c1cc1n(c2=O)Cc2cc3ccccc3nc2-1 [Camptothecin] | 600 µg/mL (≈ 1720 µM) |
